The nature of this data set: gradient 5% acetonitrile 3 min, to 50% in 2 min, to 85% in 15 min, held 3 min, 100 µL/min. To be noted: column: Zorbax Extend-C18 2.1 x 50 mm; eluents: water / acetonitrile, 0.1% formic acid. A digest of the protocol: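 Each retention time is based on an adduct peak selected computationally and verified by manual inspection. Measurements used HPLC–quadrupole time-of-flight mass spectrometry in positive and negative ionization mode on mixtures of ~100 pure standards. Chromatography ran on a Zorbax Extend-C18 column (2.1 × 50 mm, 1.8 μm) at 100 μL/min with water and acetonitrile, each containing 0.1% formic acid, and dead and dwell volumes of 40 μL and 900 μL.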
Compound `Cc1ccccc1Cn1nc2ccc(S(=O)(=O)N3CCCCCC3)cn2c1=O` yielded an RP-LC retention time of 1020 s. Turning to `COc1ccc(NC(=O)c2nc(N3CCSCC3)c3cnn(C)c3n2)cc1`, the RP-LC retention time was determined as 814 s. In turn, `O=C(Cc1ccccc1Br)N1CCN(c2cc(-c3ccc(Cl)cc3)[nH]n2)CC1` registered an RP-LC retention time of 939 s. As for `O=C(NOCC(O)CO)c1cc(Br)c(F)c(F)c1Nc1ccc(I)cc1F` (centres undefined), the RP-LC retention time came to 879 s. Then `COc1ccc(CN2C=C(C(=O)OCc3nc(-c4ccccc4)no3)C(C)=NS2(=O)=O)cc1`, with 1100 s. Next, `COc1ccc(-c2c(C)noc2NC(C)=O)cc1S(=O)(=O)NCC(C)c1ccccc1` (centres undefined): 838 s; `CCOC(=O)c1cc(-c2ccc(OC)c(S(=O)(=O)N3CCN(c4ccccn4)CC3)c2)on1`: 726 s; `O=C(NCC1CCCO1)c1c[nH]c2ncccc12` (centres undefined): 589 s.

As for `O=C(CSc1nnc2c3cc(-c4ccccc4)nn3ccn12)Nc1ccccc1Br`, the RP-LC retention time was found to be 908 s. Then `Cc1c(NC(=O)C2CCN(S(=O)(=O)Cc3ccccc3)CC2)c(=O)n(-c2ccccc2)n1C`, with 672 s; and `CCn1cc(CN2CCC(C(=O)NCc3ccco3)CC2)c2ccccc21`, with 658 s; and `O=C(O)/C=C\C(=O)Nc1ccc(-c2ccccc2)cc1`, with 903 s.

With `CCc1ccc(-c2cn3cc(C(=O)NCCN4CCN(C)CC4)ccc3n2)cc1`, the RP-LC retention time was determined as 573 s. For the compound `CC1CCN(c2nc(-c3ccc(Cl)cc3)nc3ccccc23)CC1`, the RP-LC retention time amounted to 947 s.

Compound `O=S1(=O)C[C@H](N2CCN(c3ccccn3)CC2)[C@@H](S(=O)(=O)c2ccccc2)C1` registered an RP-LC retention time of 598 s. As for `O=C(NCCn1nnc2cc(C(=O)N3CCCC3)ccc21)Nc1ccc(Br)cc1F`, the RP-LC retention time was 742 s.

The compound `CN1CCN(C(=O)C2CCN(S(=O)(=O)c3ccc(-c4noc(C5CC5)n4)cc3)CC2)CC1` returned an RP-LC retention time of 636 s. Next, `COCCN1C(=O)[C@H]2CN(Cc3cccc4[nH]ccc34)C[C@H]2C1=O`: 583 s; `Cc1cc(C)cc(Nc2nc(C)cc3nn(CC(=O)NC4CCCC4)c(=O)n23)c1`: 998 s; `CCOc1ccc(CC(=O)NC2CCN(c3cc(-c4ccc(F)cc4)[nH]n3)C2)cc1OCC` (centres undefined): 679 s.

In turn, `O=C(NCc1cccs1)c1coc(NC(=O)C2CC2)n1` returned an RP-LC retention time of 614 s. Next, `O=C(c1cn2ccccc2n1)N1CCN(c2cccc(Cl)c2)CC1`: 718 s; `O=C(c1ccoc1)N1CC(F)(F)C[C@H]1c1nnc(-c2ccncc2)o1`: 668 s.

The compound `CCC(C)N1CC(=O)N(c2ccc(OC)c(Cl)c2)[C@@H]2CS(=O)(=O)C[C@@H]21` (some centres undefined) displayed an RP-LC retention time of 786 s.

In turn, `CC(C)(C)c1ccc(C(=O)Nc2cnc(N3CCOCC3)nc2)cc1` yielded an RP-LC retention time of 923 s.

Take `CC(C(=O)Nc1ccccc1C(F)(F)F)n1cnc2nc3c(cc2c1=O)CCCC3` (centres undefined): the RP-LC retention time is 768 s.

For `CC(C)C(=O)Nc1ccc2c(c1)nc(CN1CCCC1)n2C(C)C`, the RP-LC retention time was determined as 602 s. On to `CC(=O)c1ccc(OCC(O)CN2CCN(Cc3ccc(Cl)cc3)CC2)cc1` (centres undefined), for which the RP-LC retention time came out at 574 s. For the compound `Cc1ccc(CC(=O)N2CCc3c(c(C(=O)N4CCCC(C(=O)NC5CC5)C4)nn3C)C2)cc1` (centres undefined), the RP-LC retention time was found to be 681 s. Next, `O=C(CN1CCN(Cc2cccc(Cl)c2)C1=O)N1CCN(c2ccccc2)CC1`: 885 s. Then `Cc1cc(C(=O)N2CCCC2Cc2noc(C3CCCC3)n2)n[nH]1` (centres undefined), with 750 s; and `O=C(CSc1nnc2scc(-c3ccc(Cl)cc3)n12)NCC1CCCO1` (centres undefined), with 675 s. On to `Cc1ccc(NC(=O)C2CCCN(C(=O)C3Sc4ccccc4NC3=O)C2)cc1` (centres undefined), for which the RP-LC retention time worked out at 741 s.

On to `Cc1cc(C(N)=O)c2cc(F)ccc2n1`, for which the RP-LC retention time was found to be 544 s. Then `Cn1nc(C(=O)N2CCC(C(=O)N3CCCC3)CC2)c2c1CCN(C(=O)Cc1ccc(F)cc1)C2`, with 679 s.

`Cn1cccc1CN(C(=O)c1ccc(F)cc1Cl)C1CC1` registered an RP-LC retention time of 915 s. Then `CCN1C(=O)C2(CCN(S(=O)(=O)c3ccc(C(C)C)cc3)CC2)c2ccccc21`, with 1210 s; and `O=C(Cn1c(C(F)(F)F)nc2cc3c(cc21)OCCO3)NCc1ccc2c(c1)OCCCO2`, with 818 s. Then `COc1ccc(-c2csc(NC(=O)c3ccc(C)o3)n2)cc1`, with 962 s; and `CCNC(=O)C1CCCN(c2nc3ncn(CC(=O)Nc4ccccc4)c(=O)c3s2)C1` (centres undefined), with 644 s. The compound `COc1ccc(-n2nnc(C(=O)O)c2-c2ccccc2)cc1OC` registered an RP-LC retention time of 691 s. Next, `CCCc1nnc(NC(=O)CSc2ccc(NC(=O)C3CC3)nn2)s1`: 694 s; `O=C(Nc1ccc(-c2cn3cccnc3n2)cc1)c1cccs1`: 629 s.

The compound `CCOc1ccc2nc(NC(=O)C3CCN(c4ccc(-n5cccn5)nn4)CC3)sc2c1` gave an RP-LC retention time of 780 s. Next, `CC1=NS(=O)(=O)N(C)C=C1C(=O)OCc1cccc(C)c1`: 967 s; `Cc1ccccc1Nc1c(-c2ccccc2)nc2cccc(C)n12`: 750 s; `CCc1ccc(NC(=O)Cn2c(-c3cnccn3)nc(C)c(C)c2=O)cc1`: 792 s. Next, `CCCN(CC1CCOC1)C(=O)Nc1ccc(Cl)cc1` (centres undefined): 843 s. Then `Cn1cc(S(=O)(=O)N2CCCCC2)cc1C(=O)Nc1ccc2c(c1)OCO2`, with 924 s; and `Cc1cccc(N2CCN([C@H]3CS(=O)(=O)C[C@@H]3S(=O)(=O)c3ccc(F)c(C)c3)CC2)c1`, with 986 s; and `COc1ccc2c(c1)c(N1CCCC1=O)c(C(=O)Nc1ccc(F)cc1)n2C`, with 952 s. `CCCNC(=O)c1cc(-c2ccc(F)cc2)cn1CC` came in with an RP-LC retention time of 925 s. As for `CC1CC(=O)N(CC(=O)Nc2cccc(C(F)(F)F)c2)c2ccccc2S1(=O)=O` (centres undefined), the RP-LC retention time was found to be 875 s. Then `O=C1CCN(Cc2ccc(F)cc2F)CCOCCN1`, with 561 s. Then `COc1ccc(C(C)NC(=O)C2=C3CCCN3c3ccc(F)cc3S2(=O)=O)cc1` (centres undefined), with 899 s. `Nc1ccccc1SC1CC(=O)N(c2ccccc2Cl)C1=O` (centres undefined) showed an RP-LC retention time of 884 s. The compound `COc1ccc(-c2nnc(SCC(=O)Nc3ccc(S(N)(=O)=O)cc3)o2)cc1` showed an RP-LC retention time of 736 s.

The compound `CCN1C(=O)c2cc(S(=O)(=O)Nc3ccc(C)cc3C)ccc2Oc2cccnc21` registered an RP-LC retention time of 1080 s. `O=C(CN1CCCCC1c1nc(-c2ccc(F)cc2)no1)NCc1cccs1` (centres undefined) had an RP-LC retention time of 1020 s. Regarding `COC(=O)c1ccc2c(=O)n(-c3cc(C)cc(C)c3)c(N3CCSC3)nc2c1`, the RP-LC retention time stood at 1180 s. Then `O=C(Oc1cccc([N+](=O)[O-])c1)N1CCCCC1`, with 896 s; and `O=C(Nc1ccc2c(c1)OCCO2)c1ccnc(N2CCNC(c3ccccc3)C2)c1` (centres undefined), with 638 s; and `COc1ccc(CNC(=O)Cn2nc3c(N4CCSCC4)nccn3c2=O)cc1`, with 762 s.

Regarding `Nc1nc(N2CCC3(CC2)OCCO3)ncc1S(=O)(=O)c1ccccc1`, the RP-LC retention time is 808 s. In turn, `Cc1cc(C)n(-c2ccnc(N3CCC(C(=O)N4CCC(C)CC4)CC3)n2)n1` registered an RP-LC retention time of 920 s. Then `CCC(=O)N(C1CCOCC1)C1CCN(Cc2cc(F)c(F)c(F)c2)CC1`, with 625 s. Then `COc1ccc(N2CC(c3noc(-c4cc(F)cc(F)c4)n3)CC2=O)cc1OC` (centres undefined), with 899 s.

Compound `CNC(=O)c1cn(-c2ccc(SCC(=O)Nc3ccc4c(c3)OCCO4)nn2)cn1` gave an RP-LC retention time of 645 s. Then `COC(=O)CCNC(=O)c1cc2c(=O)n(CC(C)C)c3ccccc3n2n1`, with 828 s; and `O=C(CN1CCc2ccccc2C1C(=O)N1CCCC1)NCc1ccc(C(F)(F)F)cc1` (centres undefined), with 880 s. Then `O=C(Nc1cc(F)ccc1F)N1CCCC(Cn2c(C3CC3)nc3cccnc32)C1` (centres undefined), with 689 s; and `COc1ccc(-c2nc3ccccn3c2NC(=O)c2ccc([N+](=O)[O-])cc2)cc1`, with 662 s; and `CCn1c(CC2CCN(C(=O)Nc3ccc(C)cc3)C2)nc2cccnc21` (centres undefined), with 600 s. Next, `CCOC(=O)c1oc2ccc(S(=O)(=O)N3CCC(c4ccncc4)CC3)cc2c1C`: 730 s; `CCOc1ccc(N2CC(c3nc(-c4ccc(Cl)cc4)no3)CC2=O)cc1` (centres undefined): 1080 s; `Cc1ccc(C(=O)Nc2ccc(N3CCN(Cc4ccccc4)C3=O)nc2)s1`: 847 s. `COc1cc(NC(=O)N2CCN(c3cc(-c4ccccc4)ncn3)CC2)cc(OC)c1` yielded an RP-LC retention time of 649 s. Compound `CCOC(=O)c1c(C)c(CCC(=O)NCCN2CCCCCC2)n(C)c1C` came in with an RP-LC retention time of 645 s. Then `COc1ccc(-c2nc(C3CC(=O)N(c4ccc(OC)c(OC)c4)C3)no2)cc1OC` (centres undefined), with 787 s.

Source of the values: the METLIN SMRT retention time set (Domingo-Almenara et al. 2019).
